Assay results taken from ChEMBL document CHEMBL1126331, “Nor-mefloquine: Stereospecific synthesis and biological properties” (1992).

Assays:
[1] = system: Mus musculus; assay: Compound was evaluated in vivo against Plasmodium berghei in mice (Mus musculus) after oral administration; format: functional
[2] = system: Rattus norvegicus; assay: Percent decrease in blood pressure in conscious hypertensive rats, at a dose of 100 mg; format: functional

Structure (SMILES)	ED50 [1] [mg/kg]	Decrease [2] [%]
Cl.O[C@H](c1cc(C(F)(F)F)nc2c(C(F)(F)F)cccc12)[C@@H]1CCCN1 (single isomer, unassigned)	1.8	15
Cl.O[C@@H](c1cc(C(F)(F)F)nc2c(C(F)(F)F)cccc12)[C@H]1CCCCN1 [MEFLOQUINE HYDROCHLORIDE]	1.8	–
